Test: Human HepG2 cell viability assay in 384 well format
Assay type: toxicity, cell-based
Design: dose 125 nL, time 70.5 hour; cytotoxicity at 70.5 h: concentration not given beside the values
Settings: HepG2 cells, read-out: Inhibition

Question: With CC(C)N1CCCC(C(=O)N2CCN(c3nsc4ccccc34)CC2)C1 (stereo not given) as the compound, how does the cytotoxicity at 70.5 h read?
Answer: 1.52%

Question: For CN(C)C(=O)[C@@H]1CCO[C@@H]2CCN(CCOCc3ccccc3)C[C@H]21, which cytotoxicity at 70.5 h is on record?
Answer: 20.6%

Question: With Cc1cnc(C(=O)N2CCOCC2c2ccccc2)cn1 (stereo not given) as the compound, how does the cytotoxicity at 70.5 h read?
Answer: -10.2%

Question: For Cc1nc(C2CCCN(C(=O)CO)C2)cc(N2CCOCC2)n1 (stereo not given), which cytotoxicity at 70.5 h is on record?
Answer: -4.97%

Question: With CCC(=O)NCCc1cc(N2CCN(C(C)=O)CC2)nc(C2CC2)n1 as the compound, how does the cytotoxicity at 70.5 h read?
Answer: -1.36%

Question: Which cytotoxicity at 70.5 h does the source give for Cc1cnn(CC2CCCCN2C(=O)CN(C)C2CC2)c1 (stereo not given) here?
Answer: 16.1%

Question: For CCC(=O)NCCc1cc2nc(-c3ccncc3)ccn2n1, which cytotoxicity at 70.5 h is on record?
Answer: -5.77%

Question: With Fc1cccc(C2CCCCN2Cc2nc(-c3cnccn3)no2)c1 (stereo not given) as the compound, how does the cytotoxicity at 70.5 h read?
Answer: -1.63%

Question: Which cytotoxicity at 70.5 h does the source give for O=c1cc(CN2C[C@H]3CC[C@@H]2CN(Cc2ccccc2)C3)[nH]c(=O)[nH]1 here?
Answer: 2.22%

Question: For COCCN1CCC(CNC(=O)C2(C#N)CCCCC2)CC1, which cytotoxicity at 70.5 h is on record?
Answer: -8.47%

Question: With CN(CCOc1cccc(CNS(C)(=O)=O)c1)C1CCOCC1 as the compound, how does the cytotoxicity at 70.5 h read?
Answer: 1.39%

Question: For CNc1nc(C)c(C(=O)N2CCC(C(O)Cc3ccccc3)CC2)s1 (stereo not given), which cytotoxicity at 70.5 h is on record?
Answer: -11.8%

Question: With CC(C)(N)c1cn(C2CCN(C(=O)CCC3CCCCC3)CC2)nn1 as the compound, how does the cytotoxicity at 70.5 h read?
Answer: -5.04%

Question: For Cc1nncn1CCNC(=O)C(C)(C)c1cccc(F)c1, which cytotoxicity at 70.5 h is on record?
Answer: -7.47%

Question: With CCN1CC2(CCN(C(=O)c3nc4cc(C)ccn4c3F)CC2)CC1=O as the compound, how does the cytotoxicity at 70.5 h read?
Answer: 24.7%

Question: With COCCn1ccc2cc(NC(C)=O)ccc21 as the compound, how does the cytotoxicity at 70.5 h read?
Answer: -5.43%

Question: With Cc1occc1C(=O)NCC(O)c1ccc(Cl)s1 (stereo not given) as the compound, how does the cytotoxicity at 70.5 h read?
Answer: 3.32%

Question: For Cc1ccc(C(=O)Nc2nnc(CC(C)C)s2)c(-n2cnnn2)c1C, which cytotoxicity at 70.5 h is on record?
Answer: 29.7%

Question: For CC(=O)N1CCc2c(nc(N(C)C)nc2N(C)CCC2CCCCO2)C1 (stereo not given), which cytotoxicity at 70.5 h is on record?
Answer: 11.3%

Question: Which cytotoxicity at 70.5 h does the source give for COc1ccnc(CN2CC(=O)N(c3ccc(C)cc3)CC2C)c1OC (stereo not given) here?
Answer: 16.8%

Question: Which cytotoxicity at 70.5 h does the source give for OCCN1CCCCC1C1OCCO1 (stereo not given) here?
Answer: 0.562%

Question: For Cc1nn(C)c(N(C)C)c1CNC1CCc2c(Cl)cccc21 (stereo not given), which cytotoxicity at 70.5 h is on record?
Answer: -1.83%

Question: Which cytotoxicity at 70.5 h does the source give for N#CC1CCCN(S(=O)(=O)c2ccc(C(=O)NCC(F)F)cc2)C1 (stereo not given) here?
Answer: 3.7%

Question: For CC(NCc1ccccc1Cl)c1ccc2[nH]c(=O)[nH]c2c1 (stereo not given), which cytotoxicity at 70.5 h is on record?
Answer: 7.48%

Question: With Cc1cc(C(=O)N2CCCC3(COCCN(c4ncccn4)C3)C2)[nH]n1 (stereo not given) as the compound, how does the cytotoxicity at 70.5 h read?
Answer: -6.04%

Question: With CO[C@H]1CCN(Cc2ccccn2)[C@@H]2CN(Cc3ccco3)C[C@H]12 as the compound, how does the cytotoxicity at 70.5 h read?
Answer: -20.1%

Question: For Cc1cc(C(=O)N2CCCN(Cc3nccn3C)CC2)no1, which cytotoxicity at 70.5 h is on record?
Answer: 12.6%

Question: For CC(=O)N1CCCC2(CCN(C(=O)c3ccc(Cl)c(C(F)(F)F)c3)C2)C1 (stereo not given), which cytotoxicity at 70.5 h is on record?
Answer: -10.6%

Question: With CC(C)c1nc(CNC2CCN(C(=O)OC(C)(C)C)CC2)cs1 as the compound, how does the cytotoxicity at 70.5 h read?
Answer: -8.72%

Question: For COc1cc(O)cc2c1C(=O)CC(c1ccc(O)cc1)O2 (stereo not given), which cytotoxicity at 70.5 h is on record?
Answer: -14%

Question: Which cytotoxicity at 70.5 h does the source give for CC(=O)N1CCC(c2ccnc(Nc3cncnc3)n2)CC1 here?
Answer: -8.15%

Question: For CN(C)CCn1c2c(ccc1=O)CCN(C(=O)c1ccoc1)CC2, which cytotoxicity at 70.5 h is on record?
Answer: -1.95%

Question: With Cn1cc(CN2C[C@@H]3CCC[C@@H](OCc4cccnc4)[C@@H]3C2)cn1 as the compound, how does the cytotoxicity at 70.5 h read?
Answer: 3.45%

Question: With OCC(CO)N1CCCC(Cc2ccnc(Nc3ccccn3)c2)C1 (stereo not given) as the compound, how does the cytotoxicity at 70.5 h read?
Answer: -14.9%

Question: With O=C(c1ccc(-n2ccnc2)cc1)N1CCCC(n2ccnc2)C1 (stereo not given) as the compound, how does the cytotoxicity at 70.5 h read?
Answer: -6.23%

Question: For COc1cc(C)cc(C(C(=O)O)N(C)Cc2ccncc2C)c1OC (stereo not given), which cytotoxicity at 70.5 h is on record?
Answer: 4.18%

Question: With CN(Cc1csc2ccccc12)C(=O)NC1CCS(=O)(=O)C1 (stereo not given) as the compound, how does the cytotoxicity at 70.5 h read?
Answer: -7.9%

Question: With Cc1ncc(CN2CCC(CNS(=O)(=O)C3CC3)C2)cn1 (stereo not given) as the compound, how does the cytotoxicity at 70.5 h read?
Answer: 13.4%

Question: With c1ccc(Oc2ccc(CNCC3CNc4ccnn4C3)cn2)cc1 (stereo not given) as the compound, how does the cytotoxicity at 70.5 h read?
Answer: -9.82%

Question: With O=C(Nc1cccnc1)C1CCN(c2cc(-n3ccnc3)ncn2)CC1 as the compound, how does the cytotoxicity at 70.5 h read?
Answer: -5.59%

Question: For Cc1cnn(CC2CCCN2Cc2cc(=O)n3ccccc3n2)c1 (stereo not given), which cytotoxicity at 70.5 h is on record?
Answer: -5.58%

Question: Which cytotoxicity at 70.5 h does the source give for CC(=O)N1CCN(C(=O)c2[nH]nnc2Nc2ccccc2F)CC1 here?
Answer: 8.05%

Question: For CCN(CC)S(=O)(=O)NCC(O)c1c(Cl)cccc1Cl (stereo not given), which cytotoxicity at 70.5 h is on record?
Answer: 8.36%

Question: Which cytotoxicity at 70.5 h does the source give for CC(NCc1cccnc1)c1cc2c(cc1Br)OCCO2 (stereo not given) here?
Answer: -6.12%

Question: For CC(NCC1CCN(CCO)CC1)c1cccnc1 (stereo not given), which cytotoxicity at 70.5 h is on record?
Answer: 28.1%

Question: With Cc1noc(C)c1CN1CCO[C@H]2[C@H](Oc3ncccc3F)CC[C@@H]21 as the compound, how does the cytotoxicity at 70.5 h read?
Answer: -9.05%

Question: Which cytotoxicity at 70.5 h does the source give for c1cc(N2CCCCC2)ccc1-c1noc(CN2CCOCC2)n1 here?
Answer: -0.0335%

Question: For CCc1nccn1CCC(=O)N1CC[C@@H](c2sccc2C)[C@H](O)C1, which cytotoxicity at 70.5 h is on record?
Answer: -12.3%

Question: Which cytotoxicity at 70.5 h does the source give for O=C(CC(F)(F)F)N1C[C@@H]2CC[C@H](C1)N(Cc1ccccc1)C2=O here?
Answer: -9.7%

Question: For Cc1nnc(NCC(c2ccco2)N2CCCC2)c(C#N)c1C (stereo not given), which cytotoxicity at 70.5 h is on record?
Answer: 3.51%

Question: For CCCc1nc(CNC(=O)Cc2csc(C)n2)cs1, which cytotoxicity at 70.5 h is on record?
Answer: 0.825%

Question: Which cytotoxicity at 70.5 h does the source give for CCc1cc(=O)[nH]c(SCc2ccccn2)n1 here?
Answer: -5.73%

Question: For COCC(=O)N1CCCC(c2cccc(-n3ccnc3)n2)C1 (stereo not given), which cytotoxicity at 70.5 h is on record?
Answer: 4.64%

Question: With O=C(NCCCO)Nc1cccc(C[S+]([O-])c2ccccc2)c1 (stereo not given) as the compound, how does the cytotoxicity at 70.5 h read?
Answer: -6.37%

Question: With COCC1CC2(CCN(c3ccc(C)nn3)CC2)CN1C(C)C (stereo not given) as the compound, how does the cytotoxicity at 70.5 h read?
Answer: -10.4%

Question: With Oc1cccc(CN2C[C@H]3CC[C@@H]2CN(Cc2ccc(F)cc2)C3)c1 as the compound, how does the cytotoxicity at 70.5 h read?
Answer: -1.41%

Question: For CN(C)C(=O)CN1CCC2(CC1)COC2, which cytotoxicity at 70.5 h is on record?
Answer: -5.41%

Question: Which cytotoxicity at 70.5 h does the source give for CC(C)c1ccc(OCCC(=O)N(C)CC(=O)N(C)C)cc1 here?
Answer: 16%

Question: Which cytotoxicity at 70.5 h does the source give for COc1c(C2CCCN2C(=O)c2c[nH]c3ncccc23)c(C)nn1C (stereo not given) here?
Answer: -5.62%

Question: With Cc1occc1C(=O)NCCOc1ccc(C(F)(F)F)cn1 as the compound, how does the cytotoxicity at 70.5 h read?
Answer: 18.8%

Question: With Cc1cccc(S(=O)(=O)N2C[C@H]3C[C@H](C(=O)N(C)C)[C@@H](C2)O3)c1 as the compound, how does the cytotoxicity at 70.5 h read?
Answer: 1.15%

Question: With O=C(c1nnn(-c2ccccc2Cl)c1-c1ccccn1)N1CCSCC1 as the compound, how does the cytotoxicity at 70.5 h read?
Answer: -2.09%

Question: With c1cc(CN2CCOC(Cn3cccn3)C2)c2c(c1)OCCO2 (stereo not given) as the compound, how does the cytotoxicity at 70.5 h read?
Answer: -14.1%

Question: For COc1cccc(Cn2c(C3CCNCC3)cc3cccnc32)c1, which cytotoxicity at 70.5 h is on record?
Answer: -1.55%

Question: With CN(C)CCN1CC[C@H]2[C@@H]1CCN2Cc1ccc2c(c1)OCO2 as the compound, how does the cytotoxicity at 70.5 h read?
Answer: -4.2%

Question: Which cytotoxicity at 70.5 h does the source give for O=C(c1ccc(C2CCCN2C(=O)c2ccoc2)s1)N1CCOCC1 (stereo not given) here?
Answer: -1.44%

Question: For O=S(=O)(c1ccccc1Cl)N1CCCC(c2ncc[nH]2)C1 (stereo not given), which cytotoxicity at 70.5 h is on record?
Answer: -3.85%

Question: Which cytotoxicity at 70.5 h does the source give for Cn1cc(CN(C(=O)c2ccc3ncsc3c2)C2CC2)cn1 here?
Answer: 19.6%

Question: Which cytotoxicity at 70.5 h does the source give for CCC(CN1CCCC1)NC(=O)C1(c2ccc(F)cc2)CC1 (stereo not given) here?
Answer: -7.41%

Question: With CN(CCc1ncnn1-c1ccccc1Cl)C1CCS(=O)(=O)C1 (stereo not given) as the compound, how does the cytotoxicity at 70.5 h read?
Answer: -17.7%

Question: With COC(=O)C1(NCc2nc(C)c(C)o2)CCC(C)CC1 (stereo not given) as the compound, how does the cytotoxicity at 70.5 h read?
Answer: -8.62%

Question: Which cytotoxicity at 70.5 h does the source give for Cc1cccc2nc(CN3CCCC(C)C3)cc(=O)n12 (stereo not given) here?
Answer: 13.9%

Question: With CC(C)c1nc(C2CCCN2CC(=O)Nc2nncs2)no1 (stereo not given) as the compound, how does the cytotoxicity at 70.5 h read?
Answer: -1.18%

Question: With Cc1cc(C(=O)N2CCOC(c3nc(C)n[nH]3)C2)[nH]n1 (stereo not given) as the compound, how does the cytotoxicity at 70.5 h read?
Answer: 3.96%

Question: With O=C(NCCC1CN(Cc2c[nH]cn2)CCO1)c1ccccc1O (stereo not given) as the compound, how does the cytotoxicity at 70.5 h read?
Answer: 23%

Question: Which cytotoxicity at 70.5 h does the source give for Cc1cncc(NC(=O)c2ccc(CN3CC[C@H](O)C3)cc2)c1 here?
Answer: 19.1%

Question: For O=C(NCC1CC[C@@]2(CNCCOC2)O1)c1cnccn1 (stereo not given in full), which cytotoxicity at 70.5 h is on record?
Answer: 27.6%

Question: With CCC(=O)N1CCC2(CC1)CC(NC(=O)N(C)C)c1cc(C)ccc12 (stereo not given) as the compound, how does the cytotoxicity at 70.5 h read?
Answer: -5.76%

Question: With CC(C)(C)NS(=O)(=O)c1cc(NC(=O)C2CC2)ccc1F as the compound, how does the cytotoxicity at 70.5 h read?
Answer: -5.03%

Question: With CCc1nc(CN2CCCN(C(=O)c3cnc[nH]3)CC2)cs1 as the compound, how does the cytotoxicity at 70.5 h read?
Answer: -14.3%

Reference: ChEMBL document CHEMBL3507680, “University of Dundee, Gates Library screen for HepG2 cell viability”
